Entries after “also recorded” stand apart in the source; their conditions may differ. Bridge positions count the residues as written; N and C are the ends. Ends that are not written are not given here.
Tests used:
[1] = system: streptozotocin (STZ) induced diabetic mouse model; test: Blood glucose in STZ induced diabetic mouse model (Example 2); type: in vivo, mouse (C57Bl/6); conditions: for Blood Glucose (Mean): 50 μg/kg SC once daily; for Blood glucose levels as compared to vehicle treated group: 50 μg/kg body weight SC for twenty eight days
Protocol: C57Bl/6 female mice, 6-7 weeks old were used for the study and conditions were the same as for Example 1 above unless otherwise specified. Following acclimatization, mice were dosed intraperitoneally (IP) with 50 mg/kg STZ solubilized in 0.05 M sodium citrate buffer at a volume of 100 μl per mouse for five consecutive days. Blood Glucose levels were monitored on day 6 post STZ using Accu check glucose meter. Mice were grouped having average blood glucose levels of 200 mg/dL. There were three groups of ten mice each. Mice were dosed subcutaneously with Linear PanCyte (SEQ ID NO:6), PanCyte or vehicle for twenty-eight days. […]
Linear PanCyte and PanCyte were prepared in saline and administrated subcutaneously at a dose volume of 100 μl/mouse daily for twenty-eight days. Dosing solutions were prepared fresh every three days.
The blood glucose level was lowest in the groups treated with PanCyte 50 μg/kg followed by Linear-PanCyte 50 μg/kg.

diabetic mouse model = conditions: Bindom et al. 2010; cited from earlier work
[2] = system: streptozotocin (STZ) induced diabetic mouse model; test: Blood glucose in STZ induced diabetic mouse model (Example 1); type: in vivo, mouse (C57Bl/6); conditions: 50 and 500 μg/kg body weight; monitored 3×/week for 4 weeks post STZ; FIG. 1
Excerpt: Streptozotocin is a widely used chemical agent for producing Type-I Diabetes in experimental animals. The chemical is thought to cause Diabetes by direct action on the pancreatic beta cells and inhibits the insulin secretory mechanism. Depending upon the dosing regimen, streptozotocin can cause a mild, moderate, or severe diabetic condition.
C57Bl/6 female, 7-8 weeks old were used for the study. Upon arrival, mice were 6 weeks of age. All the mice were obtained from The Jackson Laboratory, Bar Harbor, Me. 04609, USA.
(§1) Following acclimatization, mice were dosed intraperitoneally (IP) with 50 mg/kg STZ solubilized in 0.05 M sodium citrate at a volume of 100 μl per mouse for five consecutive days. Blood Glucose levels were monitored beginning day 4 post STZ using a glucose meter (Accu-Chek Advantage from Roche). On day six (after five days of STZ injection) mice were grouped into four groups having average blood glucose levels of 200 mg/dL. Two groups were dosed with PanCyte (SEQ ID NO:22) 50 and 500 μg/kg body weight respectively, one group was dosed with TXA-127 (SEQ ID NO:1) 500 ug/kg, and one group was dosed with PBS as vehicle control.
Blood glucose was be monitored 3×/week for 4 weeks post STZ. Blood glucose levels was be monitored using a glucose meter by placing a drop of blood directly on to the meter strip, and measuring according to manufacturer's instructions.

[3] = system: streptozotocin (STZ) induced diabetic mouse model; test: Plasma insulin levels by mouse insulin ELISA in STZ induced diabetic mouse model (Example 1); type: in vivo, mouse (C57Bl/6); conditions: for Plasma insulin levels as compared to vehicle treated control: days 14 and 28; for Insulin (Mean): plasma
Protocol: as §1
Plasma insulin levels were measured on days 14 and 28 after treatment. Blood samples (approximately 50 to 100 ul) were collected and processed for plasma by centrifugation. Plasma samples were then used for the measurement of insulin levels using a mouse sensitive insulin ELISA kit (ALPCO Diagnostic), according the to manufacturer's instructions.

adipocytes = conditions: administered directly to adipocytes in vitro; Liu, C. et al. 2011; cited from earlier work
[4] = dose 500 μg (500 μg/kg body weight), day 14 after treatment
[5] = dose 500 μg (500 μg/kg body weight), day 28 after treatment

Substance | Blood Glucose (Mean) ([1]; day 1) [mg/dL] | Blood Glucose (Mean) ([1]; day 3) [mg/dL] | Blood Glucose (Mean) ([1]; day 5) [mg/dL] | Blood Glucose (Mean) ([1]; day 8) [mg/dL] | Blood Glucose (Mean) ([1]; day 10) [mg/dL] | Blood Glucose (Mean) ([1]; day 12) [mg/dL] | Blood Glucose (Mean) ([1]; day 15) [mg/dL] | Blood Glucose (Mean) ([1]; day 17) [mg/dL] | Blood Glucose (Mean) ([1]; day 19) [mg/dL] | Blood Glucose (Mean) ([1]; day 22) [mg/dL] | Blood Glucose (Mean) ([1]; day 24) [mg/dL] | Blood Glucose (Mean) ([1]; day 26) [mg/dL] | Blood glucose levels as compared to vehicle treated group [1] | Plasma insulin levels as compared to vehicle treated control ([3]; 500 ug/kg weight) | Insulin (Mean) [3, 4] [ng/mL] | Insulin (Mean) [3, 5] [ng/mL] | other results
Asp^1-Arg^2-Val^3-Ser^4-Ile^5-His^6-Cys^7 [Linear-PanCyte] (DRVSIHC; linear) | 222.8 | 202.2 | 220.7 | 248.5 | 252.1 | 276.1 | 278.6 | 269.3 | 280.7 | 266.2 | 256.3 | 253 | Significant differences; also recorded: lowered blood glucose levels significantly |  |  |  | 
D-Ala^7-Ang-(1-7) |  |  |  |  |  |  |  |  |  |  |  |  |  |  |  |  | Effect on the decrease in blood glucose and increase in insulin levels seen with ACE2 expression (diabetic mouse model): blocked the decrease in blood glucose
Asp^1-Arg^2-Val^3-Ser^4-Ile^5-His^6-Cys^7 [PanCyte] (DRVSIHC; bridge 4-7) | 223 | 205.3 | 197.8 | 213.2 | 230.7 | 234.8 | 232.5 | 240.3 | 230 | 237.1 | 237.3 | 232.6 | Significant differences; also recorded: lowered blood glucose levels significantly | significantly higher levels of insulin | 1.016 | 0.902 | Blood glucose levels [2]: decreased blood glucose levels; Plasma insulin levels as compared to vehicle treated control ([3]; 50 ug/kg weight): significantly higher levels of insulin; Insulin (Mean) ([3]; dose 50 μg (50 μg/kg body weight), day 14 after treatment): 1.217 ng/mL; Insulin (Mean) ([3]; dose 50 μg (50 μg/kg body weight), day 28 after treatment): 1.244 ng/mL
Asp^1-Arg^2-Val^3-Tyr^4-Ile^5-His^6-Pro^7 [TXA-127] |  |  |  |  |  |  |  |  |  |  |  |  |  | significantly higher levels of insulin | 1.097 | 0.954 | Glucose uptake (adipocytes): increased glucose uptake
